According to publication PMC10229078, “In vitro effects of lapachol and β-lapachone against Leishmania amazonensis” (Brazilian Journal of Medical and Biological Research, 2023):
pIC50: −log10 of the molar value. Several values for one entry are separate records, joined by “and”; a condition that tells them apart may be missing. Equal entries are not always repeated.

How the values were obtained:
[1] = test system: IL-2, IL-4, IL-6, IFN-γ, TNF-α, IL-17A, IL-10 production in murine macrophages; assay: Cytokine production in supernatant of amastigote assays (CBA Mouse Th1/Th2/Th17 kit); format: cell-based, BALB/c mice; details: 24 h; for IL-2, IL-4, IFN-γ, IL-17A, and IL-10 production: macrophages infected with L. amazonensis and treated; for IL-6 levels / TNF-α levels: uninfected and infected treated macrophages, all concentrations tested
Description: For the determination of cytokines, the supernatant of the amastigote assays stored at −80°C was used (MO, macrophages (negative control); MO + L. amazonensis (6 parasites/macrophage); samples treated with lapachol at IC50/2, IC50, and 2× IC50 with L. amazonensis (+) or without (-); the same was repeated for β-lapachone). The supernatant was centrifuged, and a 50 μL aliquot was used to determine cytokine levels (in pg/mL) using the BD Cytometric Bead Array (CBA) Mouse Th1/Th2/Th17 Cytokine kit (BD Life Sciences - Biosciences, USA). The dosage was performed in triplicate and according to the manufacturer's standards. This method is based on a suspension that contains beads, in which encoded fluorescent beads have cytokines that capture antibodies to bind the proteins. The final analysis was performed by flow cytometry using the BD FacsCalibur™ flow cytometer and CellQuest Pro software. The kit allows the measurement of seven distinct populations of Th1, Th2, and Th17 cytokines (IL-2, IL-4, IL-6, IFN-γ, TNF-α, IL-17A, and IL-10) in a single sample.

[2] = test system: L. amazonensis (strains MHOM/BR/1989/ BA199); set-up: method as in ref 23 Guimarães et al.; details: 72 h, strain MHOM/BR/1989/BA199, ref 23 Guimarães et al.; cited from earlier work
[3] = test system: Peritoneal macrophages from BALB/c mice; assay: Macrophage cytotoxicity, XTT, peritoneal macrophages
Description: Peritoneal macrophages from BALB/c mice were obtained as described before and adjusted to 1×10^6 macrophages/mL and plated in 96-well culture plates (TPP™ test plate, Switzerland), followed by 2 h of incubation (5% CO2 at 37°C). […] Cultures were incubated for 24 h at 37°C in 5% CO2, and non-treated cultures were used as viability control. […] After 4 h of incubation in 5% CO2 at 37°C protected from light, the results were measured as absorbance, determined by spectrophotometry (450/620 nm filter, VersaMax™ ELISA microplate reader) ([28]). […] At least three experiments were performed in quadruplicate.

[4] = test system: L. amazonensis amastigotes; assay: Activity on intracellular amastigotes in peritoneal macrophages (infection index); details: 24 h; for Inhibition of infection rate of amastigotes (infection reduction): vs untreated infected macrophages
Description: The activity of lapachol and β-lapachone on intracellular amastigotes was made on peritoneal macrophages (5×10^5 per well). Cells were seeded onto round glass coverslips within 24-well plates in RPMI 1640 medium and incubated for 2 h at 37°C in 5% CO2. After that, the proportion of 6 parasites (L. amazonensis) per macrophage were added, and cultures were incubated for 4 h at 37°C in 5% CO2. Free parasites were removed by washing with RPMI 1640 medium. The infected macrophages were incubated with lapachol (82.28, 41.14, and 20.57 µg/mL) and β-lapachone (3.26, 1.63, and 0.815 µg/mL) for 24 h at 37°C. After the incubation time, the coverslips were removed, washed, stained with Fast Panoptic, and fixed on glass slides with Entellan. […] The experiments were done twice in triplicate, and treated uninfected cells were used as the cytotoxicity control and non-treated infected cells were used as the positive control of infection. The number of intracellular amastigotes was determined by counting 200 macrophages by concentration in an optical microscope (binocular biological microscope, mod. BA310E LED, Motic, Spain). The infection index was calculated by multiplying the percentage of infected macrophages by the number of parasites per macrophages ([29]).

[5] = test system: L. amazonensis promastigotes; assay: DNA fragmentation assay, agarose gel electrophoresis; format: cell-based, Leishmania amazonensis; details: IC50/24 h (lapachol 76.62 µg/mL, β-lapachone 1.63 µg/mL)
Description: The presence of DNA fragmentation was evaluated by electrophoresis in agarose gel according to a previous study ([33]). L. amazonensis (1×10^6 promastigotes/mL) was incubated with the IC50 of compounds for 24 h. After validation of IC50 as mentioned above, pellets were re-suspended in digestion buffer (10 mM ethylenediamine tetraacetic acid [EDTA], 50 mM Tris-HCl [pH 8.0] and 0.5% sodium lauryl sulfate), to which 0.5 mg/mL proteinase K was added. The mixture was incubated for 3 h in […] and again for 1 h at 55°C in the presence of 0.1 mg/mL RNase A. DNA material was extracted by phenol/chloroform (1:1) treatment and was precipitated by adding 3 M sodium acetate and ice-cold ethanol (100%). After an overnight incubation at -20°C, the material was centrifuged (13270 g) for 30 min at 25°C temperature. Then, 2.5 volumes of ethanol (70%) were added to the pellet. The material was centrifuged (13270 g) for 15 min again and the pellet was collected, air dried, and re-suspended in Tris-EDTA buffer (50 µL, pH 8.0). DNA aliquots (10 µg) were electrophoresed on 2% agarose gel that contained ethidium bromide (0.5 µg/mL) using Tris-acetate-EDTA buffer (pH 8.0) for 45 min at 100 V and photographed under ultraviolet light. L. amazonensis untreated promastigotes were used as negative control of fragmentation (C-) and promastigotes treated with H2O2 as positive control (C+). […]

[6] = test system: Leishmania amazonensis promastigotes; assay: Mitochondria membrane potential (ΔΨm), Rh123 flow cytometry; format: cell-based; details: for Reduction in ΔΨm: lapachol 76.62 µg/mL, β-lapachone 1.63 µg/mL, H2O2 2 mM; for Variation Index (VI) of Rh123 fluorescence, (MT−MC)/MC: lapachol 76.62 μg/mL, β-lapachone 1.63 μg/mL, PC 2 mM
Description: The ΔΨm was determined using on BD FacsCalibur™ flow cytometer and CellQuest Pro software, with a total of 10.000 events acquired, using a mitochondrial-specific green-fluorescent dye Rh123 ([31]). Briefly, L. amazonensis (2×10^7 parasites/mL) were incubated with lapachol (76.62 µg/mL) and β-lapachone (1.63 µg/mL) for 1, 4, and 24 h at 25°C. After washed with PBS, the parasites were incubated with 5 μg/mL Rh123 for 15 min. After the incubation time, the cells were washed and suspended in PBS for additional incubation of 30 min for analysis. The percentage of fluorescence of Rh123, was determined by the (MT/MC)*100 equation, with MT representing the median fluorescence of the treated parasites and the MC the median fluorescence of negative controls. Alteration in ΔΨm was quantified using an index of variation (IV) obtained by the equation IV = (MT - MC)/MC, where negative IV values correspond to depolarization of the mitochondrial membrane. H2O2 (2 mM) was used as a positive control ([32]).

[7] = test system: Leishmania amazonensis promastigotes; assay: Viability assay of promastigotes, XTT colorimetric method (LD50); format: cell-based, Leishmania amazonensis (MHOM/BR/1977/LTB0016); details: 25°C
Description: The viability of L. amazonensis (MHOM/BR/1977/LTB0016) promastigotes was evaluated using the XTT colorimetric method, which consists in the XTT salt degradation by the mitochondria forming formazan crystals. Promastigote forms (2×10^7 parasites/mL) from a culture in logarithmic growth phase were incubated with lapachol and β-lapachone diluted in 199 culture medium. The drugs were diluted in series, in a ratio of two, starting from 1/2, on a 96-well cell culture plate (TPP™ test plate, Switzerland). The compounds were tested at concentrations from 204.4 to 0.40 µg/mL (lapachol) and 157.5 to 0.31 µg/mL (β-lapachone). After 24, 48, and 72 h of incubation at 25°C, 100 μL of the XTT solution (500 μg/mL) activated with PMS (50 μg/mL) were added to each well and incubated for 4 h at 37°C. The result was measured by absorbance, determined by spectrophotometry (450/650 nm filter, VersaMax™ ELISA microplate reader, USA). The lethal dose (LD50) was defined as the concentrations of the compounds that reduced survival of L. amazonensis by 50% compared to untreated parasites in culture medium. AmB (1.96 to 0.25 µg/mL) was used as positive control of leishmanicidal activity. The therapeutic selectivity index (TSI CC50/LD50) was calculated by the ratio of toxicity to macrophage vs toxicity to parasites after 24 h incubation ([28]). All assays were performed in triplicate and repeated at least three times.

[8] = Leishmania amazonensis, Macrophage, read-out: Inhibition of infection rate of amastigotes (infection reduction)

Row | Compound | IL-2, IL-4, IFN-γ, IL-17A, and IL-10 production [1] | IL-6 levels [1] | TNF-α levels [1] | pIC50 [2] | DNA fragmentation [5] | Reduction in ΔΨm ([6]; 1 h) [%] | Variation Index (VI) of Rh123 fluorescence, (MT−MC)/MC ([6]; 1 h) | Reduction in ΔΨm ([6]; 4 h) [%] | Variation Index (VI) of Rh123 fluorescence, (MT−MC)/MC ([6]; 4 h) | Reduction in ΔΨm ([6]; 24 h) [%] | Variation Index (VI) of Rh123 fluorescence, (MT−MC)/MC ([6]; 24 h) | Promastigotes LD50 ([7]; 24 h incubation) | Promastigotes LD50 ([7]; 48 h incubation) | Promastigotes LD50 ([7]; 72 h incubation) | also measured
1 | 4-hydroxy-3-(3-methylbut-2-enyl)naphthalene-1,2-dione [lapachol] | did not present significant changes | decrease | decrease | 3.99 | promoted DNA fragmentation | 44 | -0.44 | 69 | -0.69 | 30 | -0.30 | 75.60 µg/mL | 72.82 µg/mL and 72.82 ± 12.99 µg/mL | 58.85 µg/mL and 58.85 ± 6.43 µg/mL | Murine macrophage cytotoxicity CC50 ([3]; peritoneal macrophages, 24 h): 41.14 ± 2.17 µg/mL; Inhibition of infection rate of amastigotes (infection reduction) ([4]; 20.57 µg/mL): 34.95%; Inhibition of infection rate of amastigotes (infection reduction) ([4]; 82.28 µg/mL): 83.11%; Promastigotes LD50 ([7]; 24 h incubation, listed as Lapachol (1)): 75.60 ± 6.12 µg/mL
2 | CC1(C)CCC2=C(O1)c1ccccc1C(=O)C2=O [β-lapachone, 2,2-dimethyl-3,4-dihydrobenzo[h]chromene-5,6-dione] | did not present significant changes | decrease | decrease | 5.86 | promoted DNA fragmentation | 15 | -0.15 | 54 | -0.54 | 98 | -0.98 | 0.65 µg/mL and 0.65 ± 0.18 µg/mL | 1.24 µg/mL and 1.24 ± 0.19 µg/mL | 0.71 µg/mL and 0.71 ± 0.03 µg/mL | Selectivity index (SI CC50/IC50) ([3]; murine macrophage CC50 / promastigote IC50, 24 h): 1.97; Therapeutic selectivity index (TSI CC50/LD50) ([3]; murine macrophage CC50 / promastigote LD50, 24 h): 4.94; times more selective than lapachol for Leishmania death (TSI) ([3]; murine macrophages): 9.15 times; times more selective than lapachol for inhibiting the growth of Leishmania culture (SI) ([3]; murine macrophages): 3.65 times; inhibition at 0.815 µg/mL [4, 8]: 80.2%; inhibition at 1.63 µg/mL [4, 8]: 83.2%; inhibition at 3.26 µg/mL [4, 8]: 78.5%; Promastigotes LD50 ([7]; 24 h incubation, listed as β-lapachone (2)): 0.65 ± 0.18 µg/mL
